# Experimental data from patent publication US12275731B2, “Azaindole inhibitors of wild-type and mutant forms of LRRK2” (DANA-FARBER CANCER INSTITUTE, INC., priority 2018, dated 2025).
# Assays:
# Assay in all cases: KinomeScan profiling
# Format in all cases: binding
# BIKE = molecular target: T1, BIKE (Homo sapiens, UniProt Q9NSY1); conditions: read-out: % control
# T1 construct: purchased KinomeScan®
# Procedure, shortened: (§1)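 Single-point competition binding screen: 1 μM, DMSO, 468 kinases. Results reported as % control from RLU, normalised to DMSO and positive-control wells. Activity threshold: <35% control.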
# IGF1R = IGF1R (Homo sapiens, UniProt P08069); conditions: read-out: % control
# Chain of IGF1R (P08069 31-1367): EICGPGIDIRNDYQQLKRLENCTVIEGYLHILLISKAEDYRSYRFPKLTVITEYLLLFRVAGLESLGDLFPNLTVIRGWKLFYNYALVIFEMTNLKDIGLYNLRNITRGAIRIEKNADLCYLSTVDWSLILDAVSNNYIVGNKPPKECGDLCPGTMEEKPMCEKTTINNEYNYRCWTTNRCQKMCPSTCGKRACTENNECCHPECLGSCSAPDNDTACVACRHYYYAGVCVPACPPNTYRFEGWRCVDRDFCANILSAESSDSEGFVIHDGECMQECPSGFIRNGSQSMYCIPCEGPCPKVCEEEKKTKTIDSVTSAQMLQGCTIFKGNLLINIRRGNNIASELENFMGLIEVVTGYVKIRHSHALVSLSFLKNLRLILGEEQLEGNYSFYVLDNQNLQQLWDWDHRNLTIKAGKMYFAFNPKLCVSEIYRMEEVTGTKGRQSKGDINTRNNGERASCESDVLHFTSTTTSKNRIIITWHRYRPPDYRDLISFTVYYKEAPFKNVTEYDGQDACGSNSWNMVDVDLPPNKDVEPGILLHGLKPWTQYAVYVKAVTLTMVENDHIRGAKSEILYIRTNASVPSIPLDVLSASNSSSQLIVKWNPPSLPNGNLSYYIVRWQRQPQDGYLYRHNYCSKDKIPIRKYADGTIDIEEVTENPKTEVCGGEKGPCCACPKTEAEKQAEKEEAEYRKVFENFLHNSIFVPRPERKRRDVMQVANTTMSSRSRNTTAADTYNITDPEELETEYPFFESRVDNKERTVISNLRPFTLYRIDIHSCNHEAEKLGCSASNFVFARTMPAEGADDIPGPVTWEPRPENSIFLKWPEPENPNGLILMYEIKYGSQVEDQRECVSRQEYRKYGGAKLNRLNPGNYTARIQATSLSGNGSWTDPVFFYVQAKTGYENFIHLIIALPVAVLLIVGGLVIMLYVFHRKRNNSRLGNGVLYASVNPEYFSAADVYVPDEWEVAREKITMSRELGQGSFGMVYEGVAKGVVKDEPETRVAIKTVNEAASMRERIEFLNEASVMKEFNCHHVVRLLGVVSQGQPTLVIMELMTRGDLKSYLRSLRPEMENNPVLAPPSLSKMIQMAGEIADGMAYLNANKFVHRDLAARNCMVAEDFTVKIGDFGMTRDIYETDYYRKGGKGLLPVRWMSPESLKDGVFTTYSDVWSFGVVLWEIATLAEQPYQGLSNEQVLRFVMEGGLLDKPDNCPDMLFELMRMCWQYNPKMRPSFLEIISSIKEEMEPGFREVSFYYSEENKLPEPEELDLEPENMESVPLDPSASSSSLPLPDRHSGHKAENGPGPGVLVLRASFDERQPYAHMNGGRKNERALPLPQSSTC
# Procedure, shortened: as §1
# [1] = molecular target: T2, JAK2(JH1domain-catalytic) (Homo sapiens, UniProt O60674); conditions: read-out: % control
# T2 construct: Janus kinase 2 (JAK2)(JH1domain-catalytic); purchased KinomeScan®
# T2 sequence (O60674 849-1124 limits assumed): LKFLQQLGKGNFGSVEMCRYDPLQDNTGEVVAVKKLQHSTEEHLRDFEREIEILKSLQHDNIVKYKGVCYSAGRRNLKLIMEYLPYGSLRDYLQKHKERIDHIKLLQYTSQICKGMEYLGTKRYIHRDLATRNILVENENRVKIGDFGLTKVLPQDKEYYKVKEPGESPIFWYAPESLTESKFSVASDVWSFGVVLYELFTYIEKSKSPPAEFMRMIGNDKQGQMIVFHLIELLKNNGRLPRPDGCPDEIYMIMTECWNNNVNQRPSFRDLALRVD
# Procedure, shortened: as §1
# MYO3B = molecular target: T3, MYO3B (Homo sapiens, UniProt Q8WXR4); conditions: read-out: % control
# T3 sequence (Q8WXR4 1-1341): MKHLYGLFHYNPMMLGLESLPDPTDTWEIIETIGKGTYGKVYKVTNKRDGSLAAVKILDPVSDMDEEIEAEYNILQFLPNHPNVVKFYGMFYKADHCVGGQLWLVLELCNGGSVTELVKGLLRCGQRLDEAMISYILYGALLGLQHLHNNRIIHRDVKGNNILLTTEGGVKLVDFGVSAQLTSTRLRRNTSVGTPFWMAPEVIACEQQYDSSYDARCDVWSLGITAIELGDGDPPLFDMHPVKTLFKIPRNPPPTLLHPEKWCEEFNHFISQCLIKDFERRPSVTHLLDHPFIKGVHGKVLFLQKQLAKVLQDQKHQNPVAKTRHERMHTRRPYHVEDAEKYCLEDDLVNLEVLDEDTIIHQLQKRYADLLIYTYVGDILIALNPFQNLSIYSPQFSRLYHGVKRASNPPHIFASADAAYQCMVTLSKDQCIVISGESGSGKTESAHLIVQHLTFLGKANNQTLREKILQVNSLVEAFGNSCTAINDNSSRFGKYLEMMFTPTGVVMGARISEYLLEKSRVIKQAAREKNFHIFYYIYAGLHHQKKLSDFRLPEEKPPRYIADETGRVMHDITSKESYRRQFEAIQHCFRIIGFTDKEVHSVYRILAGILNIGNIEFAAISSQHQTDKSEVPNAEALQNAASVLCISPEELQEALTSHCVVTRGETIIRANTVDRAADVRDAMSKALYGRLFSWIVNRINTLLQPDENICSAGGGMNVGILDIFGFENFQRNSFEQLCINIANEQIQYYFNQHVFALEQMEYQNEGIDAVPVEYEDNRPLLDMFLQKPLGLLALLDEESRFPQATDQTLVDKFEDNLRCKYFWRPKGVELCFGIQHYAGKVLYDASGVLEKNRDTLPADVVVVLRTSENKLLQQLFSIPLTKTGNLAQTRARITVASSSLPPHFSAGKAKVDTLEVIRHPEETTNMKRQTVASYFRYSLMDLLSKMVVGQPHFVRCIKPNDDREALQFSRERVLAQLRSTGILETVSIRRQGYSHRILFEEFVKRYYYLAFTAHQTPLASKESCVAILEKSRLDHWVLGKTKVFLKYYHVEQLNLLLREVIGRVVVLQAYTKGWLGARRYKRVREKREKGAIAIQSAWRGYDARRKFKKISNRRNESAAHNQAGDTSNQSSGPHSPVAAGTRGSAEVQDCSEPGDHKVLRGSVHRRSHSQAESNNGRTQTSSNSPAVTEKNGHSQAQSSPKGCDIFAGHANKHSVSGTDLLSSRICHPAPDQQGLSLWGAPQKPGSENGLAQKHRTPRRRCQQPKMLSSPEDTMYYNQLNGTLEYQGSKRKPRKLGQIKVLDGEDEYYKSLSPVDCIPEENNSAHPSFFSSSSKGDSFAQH
# Procedure, shortened: as §1
# PFCDPK1(P. falciparum) = PFCDPK1(P. falciparum) (Plasmodium falciparum, UniProt P62344); conditions: read-out: % control
# Chain of PFCDPK1(P. falciparum) (P62344 whole entry): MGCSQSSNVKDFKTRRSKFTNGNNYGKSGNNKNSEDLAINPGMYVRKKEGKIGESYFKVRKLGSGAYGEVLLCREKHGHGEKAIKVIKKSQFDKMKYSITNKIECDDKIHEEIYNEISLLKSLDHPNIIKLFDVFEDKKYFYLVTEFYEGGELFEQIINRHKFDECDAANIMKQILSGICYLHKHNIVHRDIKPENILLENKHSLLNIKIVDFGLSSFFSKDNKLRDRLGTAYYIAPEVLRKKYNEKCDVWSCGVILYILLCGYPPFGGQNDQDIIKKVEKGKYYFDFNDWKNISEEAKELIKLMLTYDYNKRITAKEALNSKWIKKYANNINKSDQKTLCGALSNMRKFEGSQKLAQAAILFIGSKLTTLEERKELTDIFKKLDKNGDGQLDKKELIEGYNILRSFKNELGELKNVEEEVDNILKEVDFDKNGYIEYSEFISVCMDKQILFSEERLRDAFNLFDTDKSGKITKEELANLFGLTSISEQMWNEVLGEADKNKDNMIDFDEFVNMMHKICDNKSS
# Procedure, shortened: as §1
# PHKG2 = molecular target: T4, PHKG2 (Homo sapiens, UniProt P15735); conditions: PHKG2, 1 μM; read-out: % control
# T4 sequence (P15735 1-406): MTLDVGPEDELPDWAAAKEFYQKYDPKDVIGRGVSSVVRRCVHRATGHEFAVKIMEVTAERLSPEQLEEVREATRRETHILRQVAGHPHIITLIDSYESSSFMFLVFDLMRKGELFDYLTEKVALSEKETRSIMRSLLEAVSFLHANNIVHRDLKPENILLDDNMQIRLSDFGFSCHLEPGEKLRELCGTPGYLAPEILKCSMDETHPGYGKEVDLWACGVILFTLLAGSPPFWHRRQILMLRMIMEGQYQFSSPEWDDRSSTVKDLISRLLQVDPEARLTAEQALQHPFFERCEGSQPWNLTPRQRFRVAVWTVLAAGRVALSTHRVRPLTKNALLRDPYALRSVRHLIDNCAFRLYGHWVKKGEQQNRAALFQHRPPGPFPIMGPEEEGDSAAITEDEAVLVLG
# Procedure, shortened: as §1
# PIK3CA = molecular target: T5, PIK3CA (Homo sapiens, UniProt P42336); conditions: read-out: % control
# T5 construct: purchased KinomeScan® (panel service)
# T5 sequence (P42336 whole entry): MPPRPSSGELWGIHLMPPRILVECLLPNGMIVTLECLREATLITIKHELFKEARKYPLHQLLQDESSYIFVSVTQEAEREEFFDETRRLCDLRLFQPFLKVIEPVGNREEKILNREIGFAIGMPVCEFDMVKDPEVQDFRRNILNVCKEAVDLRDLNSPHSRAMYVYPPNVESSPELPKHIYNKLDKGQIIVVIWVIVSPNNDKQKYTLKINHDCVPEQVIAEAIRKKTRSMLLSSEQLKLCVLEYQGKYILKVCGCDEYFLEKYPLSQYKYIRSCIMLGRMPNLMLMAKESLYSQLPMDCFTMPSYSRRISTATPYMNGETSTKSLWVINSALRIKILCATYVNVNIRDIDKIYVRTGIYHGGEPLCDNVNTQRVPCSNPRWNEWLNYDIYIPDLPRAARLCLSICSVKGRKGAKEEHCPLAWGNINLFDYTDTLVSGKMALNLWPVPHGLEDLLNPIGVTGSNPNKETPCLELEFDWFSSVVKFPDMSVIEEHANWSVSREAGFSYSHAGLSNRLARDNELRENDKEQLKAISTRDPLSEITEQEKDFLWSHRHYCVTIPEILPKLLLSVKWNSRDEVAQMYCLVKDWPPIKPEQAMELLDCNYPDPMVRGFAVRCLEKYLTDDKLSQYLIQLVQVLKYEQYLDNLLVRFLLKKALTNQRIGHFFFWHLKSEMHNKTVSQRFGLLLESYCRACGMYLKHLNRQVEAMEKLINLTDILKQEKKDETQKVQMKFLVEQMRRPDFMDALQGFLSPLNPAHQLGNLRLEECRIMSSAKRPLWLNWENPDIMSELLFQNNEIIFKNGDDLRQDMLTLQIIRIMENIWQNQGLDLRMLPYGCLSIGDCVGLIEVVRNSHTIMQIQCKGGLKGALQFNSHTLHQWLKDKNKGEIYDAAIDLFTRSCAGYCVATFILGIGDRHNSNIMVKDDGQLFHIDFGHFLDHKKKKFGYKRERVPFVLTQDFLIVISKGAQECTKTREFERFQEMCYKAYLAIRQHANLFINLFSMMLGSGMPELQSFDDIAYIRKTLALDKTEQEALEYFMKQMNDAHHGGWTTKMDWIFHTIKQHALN
# Procedure, shortened: as §1
# T1 sequence (Q9NSY1 whole entry): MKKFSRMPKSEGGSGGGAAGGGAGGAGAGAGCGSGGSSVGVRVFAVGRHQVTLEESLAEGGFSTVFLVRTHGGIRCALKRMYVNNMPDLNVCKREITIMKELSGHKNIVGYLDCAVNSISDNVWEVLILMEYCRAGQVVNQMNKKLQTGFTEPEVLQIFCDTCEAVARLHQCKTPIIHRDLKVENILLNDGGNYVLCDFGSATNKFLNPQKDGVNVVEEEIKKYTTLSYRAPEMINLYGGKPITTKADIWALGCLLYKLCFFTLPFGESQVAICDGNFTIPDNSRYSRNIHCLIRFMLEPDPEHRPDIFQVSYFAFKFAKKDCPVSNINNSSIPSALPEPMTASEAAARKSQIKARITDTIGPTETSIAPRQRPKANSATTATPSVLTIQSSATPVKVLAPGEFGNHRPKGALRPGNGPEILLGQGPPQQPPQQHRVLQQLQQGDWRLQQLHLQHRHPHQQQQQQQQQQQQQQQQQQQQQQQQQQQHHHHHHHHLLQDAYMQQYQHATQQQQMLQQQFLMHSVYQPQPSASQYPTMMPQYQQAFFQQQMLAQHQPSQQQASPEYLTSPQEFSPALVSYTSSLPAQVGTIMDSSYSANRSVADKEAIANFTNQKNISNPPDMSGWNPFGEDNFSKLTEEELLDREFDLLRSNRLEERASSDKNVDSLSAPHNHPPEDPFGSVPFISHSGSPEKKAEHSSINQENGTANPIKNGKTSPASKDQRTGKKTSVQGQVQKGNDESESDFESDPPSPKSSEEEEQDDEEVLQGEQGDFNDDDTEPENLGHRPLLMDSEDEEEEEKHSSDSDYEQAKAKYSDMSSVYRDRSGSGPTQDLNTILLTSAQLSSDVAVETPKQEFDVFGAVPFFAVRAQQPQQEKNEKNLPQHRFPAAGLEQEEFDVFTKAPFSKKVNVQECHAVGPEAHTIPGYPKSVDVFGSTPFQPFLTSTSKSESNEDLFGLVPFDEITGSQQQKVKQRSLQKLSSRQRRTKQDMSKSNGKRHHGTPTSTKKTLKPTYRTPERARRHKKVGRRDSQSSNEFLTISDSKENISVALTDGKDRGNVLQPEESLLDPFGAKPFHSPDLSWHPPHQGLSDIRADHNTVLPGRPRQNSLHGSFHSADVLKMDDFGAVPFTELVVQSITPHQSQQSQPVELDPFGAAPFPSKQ
SMILES,remaining binding at 1 µM (BIKE) [%],remaining binding at 1 µM (IGF1R) [%],remaining binding at 1 µM [1] [%],remaining binding at 1 µM (MYO3B) [%],remaining binding at 1 µM (PFCDPK1(P. falciparum)) [%],remaining binding at 1 µM (PHKG2) [%],remaining binding at 1 µM (PIK3CA) [%]
"O=C(c1ccc(-c2cnc3[nH]cc(Cl)c3c2NC2CCCC2)cc1)N1CCC(N2CCOCC2)CC1 [Compound 101, (4-(3-chloro-4-(cyclopentylamino)-1H-pyrrolo[2,3-b]pyridin-5-yl)phenyl)(4-morpholinopiperidin-1-yl)methanone]",6.8,86,100,93,95,100,99
"CNc1c(-c2cnn([C@H]3CCN(C(C)=O)C[C@@H]3F)c2)cnc2[nH]cc(Cl)c12 [Compound 77, 1-((3S,4S)-4-(4-(3-chloro-4-(methylamino)-1H-pyrrolo[2,3-b]pyridin-5-yl)-1H-pyrazol-1-yl)-3-fluoropiperidin-1-yl)ethan-1-one]",0.4,91,7.9,96,86,52,100
"CNc1c(-c2ccc(C(=O)N3CCC(N4CCOCC4)CC3)cc2)cnc2[nH]cc(Cl)c12 [Compound 96, (4-(3-chloro-4-(methylamino)-1H-pyrrolo[2,3-b]pyridin-5-yl)phenyl)(4-morpholinopiperidin-1-yl)methanone]",0.85,100,29,73,94,19,100
